Experimental data: patent US20160235677A1, “METHOD OF CONVERTING A CRYSTALLINE COMPOUND TO AN AMORPHOUS COMPOUND, METHOD OF INCREASING THE SOLUBILITY OF A CRYSTALLINE COMPOUND IN A BIORELEVANT FLUID, AND NANOPARTICLES THAT ACHIEVE SUPERSATURATION” (Nanocopoeia, LLC., priority 2014, published 2016)
Counter-ions that a name gives are not always drawn.

Columns and labels:
[1] = XRD and DSC determinations of physical state of ENS-processed powders (Table B); type: physicochemical
Method: Thermal analysis is conducted using a TA Instruments Model Q200 DSC (New Castle, Del.) equipped with an RCS-90 refrigerated cooling system. Samples, in an amount of 3.5 mg±1.0 mg, are weighed into TA Instruments T-Zero aluminum pans and closed with lids. […] Nitrogen is used as the purge gas at a flow rate of 50 mL/min. All data analyses are performed using TA Universal Analysis 2000 software (TA Instruments, New Castle, Del.). T-Zero cell constant and temperature/enthalpy calibrations are conducted with the use of sapphire and indium standards, respectively.
X-ray powder diffraction is performed at room temperature using a Bruker D8 Discover using a Cu Kα radiation, point source filtered with a graphite monochromator and a Bruker Hi-Star two-dimensional x-ray detector (Bruker, Karlsruhe, Germany). Powder samples are pressed onto a sample holder made of single-crystal quartz cut off-axis. The reflected intensity is collected at 0.04° resolution from 2Θ=2° to 62° with an acquisition time of 20 minutes. Data analysis is performed using the JADE 8.0 software package (Materials Data Inc., Livermore, Calif.) with whole pattern fitting. The test method has a detection limit of 2% crystallinity.
A series of crystalline drug and polymer combinations were dissolved in solvents in the amounts and at the ratios set forth in Table B. The solutions were then sprayed using the ENS system described above. The resulting dry compounds were collected and analyzed according to the XRD, DSC and SEM test methods.

[2] = Differential Scanning Calorimetry (DSC) crystallinity / physical state; type: physicochemical; details: griseofulvin formulations
Method: Controls and Examples were tested according to the DSC test method.

Caco-2 monolayers = experiment: Caco-2 Monolayer Test Method; type: in vitro ADME; details: Caco-2, FIGS. 8A and 8B, result in words
Method: Caco-2 monolayers are prepared in Millipore 96-cell Caco-2 plates and are used after a 3-week differentiation period. The monolayers separate the apical, or donor well, from the basolateral, or recipient well. The buffer used for the apical side is 1.98 g/L glucose in 10 mM HEPES, Hank's Balanced Salt Solution (HBSS) lx, with calcium, magnesium, without phenol red (HyClone, Logan, Utah) pH 7.4. The impermeable dye Lucifer yellow (in an amount of 100 μM) is added to test monolayer integrity. The basolateral side buffer is buffer, pH 7.4, without dye. […] The amount of test powder is selected to assure that if the powder was completely dissolved, the amount is sufficient to achieve ˜12 to 13 times the saturation concentration of the compound of interest previously measured in HBSS (15 μg/mL), in other words, a supersaturated solution. […] Where the compound of interest is not a substrate for p-glycoprotein (pGP), B→A efflux is not measured.
Buffer test samples are added to apical wells at 1 h after preparation and buffer alone is added to the basolateral side. […] The plates are assumed to be intact if there is no increase in fluorescence from leaking Lucifer yellow dye from the apical side. Individual cell monolayers are assumed intact if there is no increase in fluorescence in aliquots taken from the basolateral wells. […]

Structure (SMILES)	XRD and DSC determinations of physical state (amorphous or crystalline) [1]	calculated levels of crystallinity based on DSC [2]	initial concentration and flux compared with unprocessed GF powder (Caco-2 monolayers)
C[C@@H](O[C@H]1OCCN(Cc2n[nH]c(=O)[nH]2)[C@H]1c1ccc(F)cc1)c1cc(C(F)(F)F)cc(C(F)(F)F)c1 [Aprepitant]	mainly amorphous material.	–	–
CN1CC2c3ccccc3Oc3ccc(Cl)cc3C2C1 (stereo not drawn) [Asenapine Maleate]	with largely amorphous material.	–	–
COC1=CC(=O)C[C@@H](C)[C@]12Oc1c(Cl)c(OC)cc(OC)c1C2=O [Control 3, griseofulvin]	–	100%	performed similarly to unprocessed GF powder
COc1ccc2c(c1)c(CC(=O)O)c(C)n2C(=O)c1ccc(Cl)cc1 [Indomethacin]	with mainly amorphous material.	–	–
O=C(O)Cc1ccccc1Nc1c(Cl)cccc1Cl [Diclofenac]	XRD and DSC consistent with crystalline	–	–
